Consider ten molecules from publication PMC2192356 (The Journal of Experimental Medicine, 1996).

Where a SMILES comes first, the peptide text is derived from it. Where no end group is shown, it is not given here. The star is where a group is joined. Biotin = O=C1N[C@H]2[C@H](CS[C@H]2CCCCC(=O)*)N1

For data set [1], the target named is T1, IAk (Mus musculus, UniProt P01910+P06343). In kind it is binding, murine. The conditions noted are these: pH 5.
Data set [2] has as its target T1, IAk. In kind it is binding, murine. Particulars: pH 5. The source holds these as a separate data set.
The test system of data set [3] is IEk. The format is binding, murine. Particulars: pH 5.
In data set [4] the test system is IAd. The format is binding, murine. The conditions noted are these: pH 5.
The target in data set [5] is T2, DR1 (Homo sapiens, UniProt P01903+P01911, A100R/D57E/F55L/F60I/F76Y/I96L/L162R/M171V/P40L/Q125E/R42F/V115G/Y59C). The format is binding. The conditions noted are these: pH 5.
Data set [6] has as its system IEk. The format is binding, murine. Particulars: pH 5. The source holds these as a separate data set.
Data set [7] concerns IAd. The format is binding, murine. Particulars: pH 5. This is another data set of the same source.
In data set [8] the test system is IEd. The format is binding, murine. The conditions noted are these: pH 5.
In data set [9] the test system is IAb. The format is binding, murine.
Data set [10] deals with T2, DR1. The format is binding. The conditions noted are these: pH 7.
Data set [11] deals with IEk. In kind it is binding, murine. The conditions noted are these: pH 5. The source holds these as a separate data set.
Data set [12] has as its target T1, IAk. The format is binding, murine. The conditions noted are these: pH 5. The source holds these as a separate data set.
In data set [13] the target is T1, IAk. In kind it is binding, murine. The conditions noted are these: pH 7.
Data set [14] concerns 3DO-54.8 T cells with CH27 APC. The format is cell-based.
In data set [15] the test system is class II proteins. In kind it is binding.
Data set [16] has as its system 3DO-54.8 T cells.
Data set [17] addresses T2, DR1. The format is binding. Particulars: pH 7. This is another data set of the same source.
Data set [18] has as its target IAk (mouse (endogenous in CH27 B lymphoma)). Nature of the data set: ELISA.
In data set [19] the target is DR1 (human (endogenous in LG2)) (UniProt P01903). The experiment in a line: ELISA.

biotin-SEB, sequence (P01552 28-266): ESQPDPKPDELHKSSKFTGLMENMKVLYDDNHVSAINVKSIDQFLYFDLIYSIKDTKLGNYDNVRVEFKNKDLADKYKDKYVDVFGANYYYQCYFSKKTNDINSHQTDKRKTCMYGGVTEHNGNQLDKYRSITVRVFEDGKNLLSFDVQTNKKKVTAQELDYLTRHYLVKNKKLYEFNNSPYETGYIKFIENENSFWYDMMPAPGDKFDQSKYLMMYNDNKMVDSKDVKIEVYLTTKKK

On to `CC(C)C[C@H](NC(=O)[C@H](C)NC(=O)[C@H](CCC(=O)O)NC(=O)[C@@H](NC(=O)[C@H](CC(C)C)NC(=O)[C@H](Cc1c[nH]cn1)NC(=O)CCCC[C@@H]1SC[C@@H]2NC(=O)N[C@@H]21)C(C)C)C(=O)N[C@@H](Cc1ccc(O)cc1)C(=O)N[C@@H](CC(C)C)C(=O)N[C@H](C(=O)N[C@@H](CS)C(=O)NCC(=O)N[C@@H](CCC(=O)O)C(=O)N[C@@H](CCCNC(=N)N)C(=O)NCC(=O)N[C@@H](Cc1ccccc1)C(=O)N[C@@H](Cc1ccccc1)C(=O)N[C@@H](Cc1ccc(O)cc1)C(=O)N[C@H](C(=O)N1CCC[C@H]1C(=O)N[C@@H](CCCCNC(=O)CCCC[C@@H]1SC[C@@H]2NC(=O)N[C@@H]21)C(=O)N[C@@H](C)C(=O)O)[C@@H](C)O)C(C)C` [biotin-B(10-30)] (Biotin-HLVEALYLVCGERGFFYTPK(Biotin)A-OH; N-terminus and C-terminus assumed), for which, in data set [1], the “time to saturate the alternative binding site of IAk” value is at most 1 h.

Turning to FVNQHLCGSHLVEALYLVCGER [B(1-22)], the “inhibition of the binding of biotin-B(10-30)” value in data set [2], in data set [3] and in [4] was “inhibits” in each case.

As to HLVEALYLVCGERGFFYTPKA [B(10-30)], the “specific binding to class II protein” value in data set [1], in [5], in [6], in data set [7], in [8] and in data set [9] was “binds” each time. The “inhibition of the binding of biotin-B(10-30)” value in data set [2], in data set [3] and in data set [4] was “inhibit” each time. For the same molecule, the “affinity for DR1 relative to HA(306-318), logs lower” value in data set [10] was ~ 3 logs. Also, the “inhibition of the binding of allele-specific antigenic peptides” value in data set [10], in [11] and in [12] was “only weakly inhibited” each time. Moreover, the “affinity for the groove of IEk relative to pCc(91-104), logs lower” value in [11] was “at least 3 logs”. In [13], the “inhibition of the binding of biotin-SEB to IAk” value is reported as “inhibited”. The “peptide concentration giving complete inhibition of SEB binding to IAk” value in data set [13] stood at 4. For the same molecule, in data set [14], the “inhibition of the response of 3DO-54.8 to SEB (IL-2)” value is “inhibited”. Further, the “dissociation rate from class II” value in data set [15] is listed as “relatively rapid”. In addition, the “pH dependence of binding to murine class II proteins” value in data set [15] is “not enhanced”. In data set [15], the “time to approach saturation / plateau of binding to class II” value is 1 to 2 h. The “effect on stimulation by anti-CD3 mAb (T cell toxicity)” value in [16] is recorded as “not altered”.

On to Intact insulin [reference compound], for which the “inhibition of the binding of biotin-B(10-30)” value in data set [2], in [3] and in [4] was “does not inhibit” each time.

On to “MAT(17-31): DR1-binding antigenic peptide defined by specific T cells (SGPLKAEIAQRLEDV)”, for which, in [17], the “inhibition of the binding of biotin-B(10-30) to DR1” value is reported as 25- 50%.

With “Myo(106-118): IAd-binding peptide (FISEAIIHVLHSR) [reference compound]”, the “inhibition of biotin-B(10-30) binding to class II” value in [15] was “inhibits”.

“NTDGSTDYGILQINSR [HEL(46-61), reference compound]”: in data set [11], the “affinity for the groove of IEk relative to pCc(91-104), logs lower” value is “at least 3 logs”. The “inhibition of the binding of biotin-SEB to IAk” value in data set [13] was “No inhibition”. For the same molecule, the “inhibition of the response of 3DO-54.8 to SEB (IL-2)” value in [14] is given as “did not”.

Regarding “RADLIAYLKQATAK [pCc(91-104), reference compound]”, the “inhibition of the binding of allele-specific antigenic peptides” value in data set [11] is reported as “inhibit”.

One may read the Kd as the equilibrium constant for the complex coming apart. Low values mean a tighter complex, high ones a looser complex. Regarding “biotin-SEB (from UniProt P01552 28-266) (natural protein)”, the Kd in [18] was found to be 62 nM.

In turn, HLVEALYLVCGERGFFYTPKA (not fully specified (N-terminus); also: biotin (site not given here)) [biotin-B(10-30)] showed a Kd in data set [19] of 620 nM.
